# Values of other authors, collected in patent US8173686B2, “Use of picoplatin to treat colorectal cancer” (priority 2006, dated 2012).
# Details: in vivo
smiles,measurement,value
N.N.O=C([O-])C1(C(=O)[O-])CCC1.[Pt+2] [carboplatin],main / dose-limiting toxicity,myelosuppression
